Measurements reported in ChEMBL document CHEMBL1145687, “Cochliobolic acid, a novel metabolite produced by Cochliobolus lunatus, inhibits binding of TGF-alpha to the EGF receptor in a SPA assay” (J Nat Prod, 1997).
pIC50: −log10 of the molar value.

Biological target: Epidermal growth factor receptor (Homo sapiens, UniProt P00533)
Experiment: Displacement of [125I]-TGFalpha from human EGFR in human A431 cell membrane by SPA
Type: cell membranes, A-431

Epidermal growth factor receptor, sequence (P00533 whole entry): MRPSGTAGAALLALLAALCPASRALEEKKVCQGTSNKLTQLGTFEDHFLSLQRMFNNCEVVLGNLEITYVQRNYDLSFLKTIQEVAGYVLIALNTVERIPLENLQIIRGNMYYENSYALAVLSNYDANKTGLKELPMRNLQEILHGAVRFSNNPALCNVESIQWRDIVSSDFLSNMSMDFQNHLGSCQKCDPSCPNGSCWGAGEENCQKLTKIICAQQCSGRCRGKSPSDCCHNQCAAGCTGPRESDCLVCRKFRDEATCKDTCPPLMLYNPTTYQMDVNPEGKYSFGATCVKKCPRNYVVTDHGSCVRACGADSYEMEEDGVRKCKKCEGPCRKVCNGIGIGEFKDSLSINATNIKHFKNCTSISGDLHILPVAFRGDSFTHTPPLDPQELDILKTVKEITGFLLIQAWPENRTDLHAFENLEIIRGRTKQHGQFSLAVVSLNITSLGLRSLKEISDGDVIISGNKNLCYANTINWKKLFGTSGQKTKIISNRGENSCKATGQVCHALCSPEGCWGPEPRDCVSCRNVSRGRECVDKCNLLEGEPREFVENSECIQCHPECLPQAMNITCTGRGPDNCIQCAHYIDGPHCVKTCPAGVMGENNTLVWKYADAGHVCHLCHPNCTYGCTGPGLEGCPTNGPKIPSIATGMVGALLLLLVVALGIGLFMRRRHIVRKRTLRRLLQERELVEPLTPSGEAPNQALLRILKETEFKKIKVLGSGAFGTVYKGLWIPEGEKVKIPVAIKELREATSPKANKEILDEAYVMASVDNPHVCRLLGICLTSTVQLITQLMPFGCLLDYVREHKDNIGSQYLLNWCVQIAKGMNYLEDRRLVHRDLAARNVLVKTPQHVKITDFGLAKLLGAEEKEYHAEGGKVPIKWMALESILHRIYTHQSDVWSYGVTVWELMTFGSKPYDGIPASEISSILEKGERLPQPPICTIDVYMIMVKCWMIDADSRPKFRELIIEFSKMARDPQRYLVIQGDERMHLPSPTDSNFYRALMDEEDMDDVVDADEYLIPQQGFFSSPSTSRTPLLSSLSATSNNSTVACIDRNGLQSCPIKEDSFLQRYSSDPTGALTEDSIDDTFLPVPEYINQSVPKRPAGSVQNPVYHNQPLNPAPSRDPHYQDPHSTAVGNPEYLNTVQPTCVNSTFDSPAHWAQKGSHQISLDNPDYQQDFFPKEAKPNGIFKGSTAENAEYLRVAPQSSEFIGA

Question: With `CCC(C)/C=C/C(=O)C(=O)/C=C/C=C/C=C/C=C/C=C/C=C/[C@@H]1C[C@@H](O)[C@H](C(=O)O)O1` (stereo partly specified) [COCHLIOBOLIC ACID] as the molecule, how does the pIC50 read?
Answer: 5.80
